{"source": "paper PMC7371863", "about": "“Intracellular interplay between cholecystokinin and leptin signalling for satiety control in rats” (Scientific Reports, 2020)", "key": {"[1]": {"system": "CCK-2 receptor (C6 cells)", "test": "Ca2+ imaging (Fura-2), CCK-2 antagonism added to LGM in C6 cells", "assay_type": "cell-based, rat", "conditions": "LY225910 100 nM additional to LGM 100 nM; CCK-8s 10 nM; p < 0.01", "description": "(§1) Rat C6 glioma cells were cultured in Dulbecco’s Modified Eagle Medium/F12 (DMEM/F12) supplemented with 10% FBS, sodium bicarbonate (1.2 g/L), and 1% penicillin/streptomycin antibiotics at 37 °C in 5% CO2. The full-length mouse leptin receptor (ObRb) in pcDNA3.1 vector was kindly provided by Dr. Christian Bjørbaek (BIDMC, Harvard Medical School, Boston, MA, USA) and transfected using Lipofectamine 2000. Subsequently, the cells were cultured in medium containing 500 μg/mL G418 for cell selection.\n(§2) C6 cells plated on 35 mm plastic dishes were gently rinsed with buffered salt solution (BSS) consisting of 130 mM NaCl, 5.4 mM KCl, 2 mM CaCl2, 1 mM MgCl2, 5.5 mM D-glucose, and 10 mM HEPES/NaOH (pH 7.4), and incubated in BSS supplemented with 6 µM Fura-2 AM (Dojindo Laboratories, Kumamoto, Japan) for 30 min in a CO2 incubator. Prior to photometry, the cells were rinsed again with BSS, incubated at 37°C for 15 min, and then continuously perfused with BSS at 34°C at a flow rate of 3 mL/min. Fluorescence images were obtained using an upright microscope (Axioplan2; Carl Zeiss, Thornwood, NY, USA) with a water-immersion objective (Achroplan×20 NA0.5w; Carl Zeiss). The wavelength of the excitation UV light (340 nm or 380 nm pulse; 250 msec) was switched using a filter wheel (Lambda 10-2; Sutter Instruments, Novato, CA, USA). […] The background fluorescence was also subtracted using the software. […]"}, "CCK-1 receptor": {"system": "CCK-1 receptor", "test": "Food access frequency after i.p. LGM following 1-h restricted feeding", "assay_type": "in vivo, rat", "conditions": "LGM 10 mg/kg i.p., 3 h before re-feeding; n = 5–6 per group; p < 0.05", "description": "Male rats aged 2–3 months were individually housed in originally designed cylindrical chambers (30 cm ϕ, H30 cm). Food was given ad libitum from slits of stainless pellet server placed 22 cm above the floor. During the RF, rats were fed with fatty food paste composed of 50% nutrient commixture chow powder, 20% soybean oil, and 30% water on a glass dish. Following removal of the dish, sterilized saline (1 ml/kg body weight) were i.p. injected. Leftover food paste was weighed after RF to calculate daily intake. Rats were acclimatized to this environment for 4 days. On day 5 of RF, saline or LGM (2 or 10 mg/kg body weight) dissolved in saline was injected. Three hours after the drug injection, rats were re-fed with regular chow in a previously setup pellet server. A touch sensing probe (Elekit PS-306) was connected to the pellet server. Because the bottom of the pellet server was placed 22 cm above the floor, purposeful food access behavior, but not general locomotor activities, was counted using this system. The ON/OFF signals from the sensor were fed into a laptop computer through a photo-coupler isolated digital I/O card (Contec Inc. PIO-16/16L) and automatically counted at 3-min intervals by software written by M.I."}, "[2]": {"system": "c-Fos and pSTAT3 in the ARC", "test": "Nuclear c-Fos and pSTAT3 in ARC after i.p. LGM", "assay_type": "in vivo, rat", "conditions": "LGM 10 mg/kg i.p., 3 h, after RF, versus saline", "description": "(§3) To investigate the cellular consequences underlying the above behavioral responses, the different groups of rats that received RF were killed 3-h after the LGM (10 mg/kg) or saline injections. Subsequently, nuclear pSTAT3-ir and c-Fos-ir were visualized in the […] by immunohistochemistry. An astrocyte marker (glial fibrillary acidic protein, GFAP) was counterstained as a landmark of ARC because ARC is the astrocyte-rich ventral neuronal nucleus (Fig. 8A). […]\n(§4) Images were acquired using a confocal laser-scanning microscope (Olympus FV1000 or Nikon A1R MP plus) with a laser diode (405 nm), argon laser (488 nm), and helium neon laser ([…]). The nuclear immunofluorescent intensity (8-bit depth) was analyzed using Photoshop CS 6 software.\n(§5) Male rats aged 2–3 months were individually housed in originally designed cylindrical chambers (30 cm ϕ, H30 cm). […] Because the bottom of the pellet server was placed 22 cm above the floor, purposeful food access behavior, but not general locomotor activities, was counted using this system. The ON/OFF signals from the sensor were fed into a laptop computer through a photo-coupler isolated digital I/O card (Contec Inc. PIO-16/16L) and automatically counted at 3-min intervals by software written by M.I."}, "[3]": {"system": "c-Fos and pSTAT3 in the VMN", "test": "Nuclear c-Fos and pSTAT3 in VMN after i.p. LGM", "assay_type": "in vivo, rat", "conditions": "LGM 10 mg/kg i.p., 3 h, after RF, versus saline", "description": "as §3, §4, §5"}, "VMN cells": {"system": "VMN cells", "test": "Ca2+ imaging in rat VMN slices", "assay_type": "cell-based", "conditions": "LGM 1 µM; leptin 1–1,000 nM; p < 0.01 two-way ANOVA"}, "pSTAT3 in C6-ObRb cells": {"system": "pSTAT3 in C6-ObRb cells", "test": "Immunofluorescent staining of pSTAT3 in C6-ObRb cells", "assay_type": "cell-based, rat C6 cells, mouse ObRb", "conditions": "for cytosolic pSTAT3 signal with kinase inhibitor: AG490 1 µM or LY294002 50 µM", "description": "as §1\n[…] Cells were treatment with AG490 (1 μM) or LY294002 (50 μM) 15 min prior to the leptin stimulation until the time of fixation. These cells were fixed in 4% phosphate-buffered paraformaldehyde for 15 min and washed three times with PBS(−). The fixed samples were then incubated for 2 h at room temperature in 10% donkey serum dissolved in 0.1% Triton-X PBS(−). Next, samples were incubated with 1:100 affinity-purified rabbit phospho-STAT3 (pTyr^705) dissolved in 5% donkey serum PBS(−) for 24 h at 4 °C. After three 20-min PBS(−) rinses, samples were incubated in 1:400 Cy3-conjugated donkey anti-rabbit IgG for 2 h at room temperature. Finally, samples were rinsed with PBS(−) (four 15-min rinses on an orbital shaker) and mounted using Vectashield containing 4′,6-diamidino-2-phenylindole (DAPI).\nas §4"}, "wild-type C6 cells": {"system": "wild-type C6 cells", "test": "Ca2+ imaging (Fura-2), leptin and CCK-8s signalling interaction in wild-type C6 cells", "assay_type": "cell-based, rat", "description": "as §1\nC6 cells plated on 35 mm plastic dishes were gently rinsed with buffered salt solution (BSS) consisting of 130 mM NaCl, 5.4 mM KCl, 2 mM CaCl2, 1 mM MgCl2, 5.5 mM D-glucose, and 10 mM HEPES/NaOH (pH 7.4), and incubated in BSS supplemented with 6 µM Fura-2 AM (Dojindo Laboratories, Kumamoto, Japan) for 30 min in a CO2 incubator. Prior to photometry, the cells were rinsed again with BSS, incubated at 37°C for 15 min, and then continuously perfused with BSS at 34°C at a flow rate of 3 mL/min. Fluorescence images were obtained using an upright microscope (Axioplan2; Carl Zeiss, Thornwood, NY, USA) with a water-immersion objective (Achroplan×20 NA0.5w; Carl Zeiss). The wavelength of the excitation UV light (340 nm or 380 nm pulse; 250 msec) was switched using a filter wheel (Lambda 10-2; Sutter Instruments, Novato, CA, USA). The UV light was generated by a full spectrum 300W Xenon bulb (Lambda LS; Sutter Instruments), conducted to the microscope through a liquid light guide. The pair of fluorescent images was processed using a band-pass filter (485–515 nm) and exposed to a multiple format cooled CCD camera (CoolSnap-fx; Photometrics, Tucson, AZ, USA) at 6-sec intervals. The filter wheel and the CCD camera were controlled using digital imaging software (MetaFluor ver. 6.2; Japan Molecular Devices, Tokyo, Japan). The background fluorescence was also subtracted using the software.\nDuring image acquisition, leptin (PeproTech, Rocky Hill, NJ, USA), CCK-4 (Peptide Institute, Inc., Osaka, Japan), CCK-8s (Sigma-Aldrich, St. Louis, MO, USA), AG490 (Calbiochem, San Diego, CA), LY294002 (Calbiochem), LY225910 (R&D Systems, Minneapolis, MN, USA), LGM (LKT Laboratories Inc., St. Paul, MN, USA), and ATP (Sigma-Aldrich) were applied by switching the perfusate. The magnitude of Ca^2+ responses was determined by peak area analysis using Origin 5.0 software (OriginLab, Northampton, MA, USA)."}, "[4]": {"system": "CCK-2 receptor (C6 cells)", "test": "Ca2+ imaging (Fura-2), CCK-2 receptor agonist response in C6 cells", "assay_type": "cell-based, rat", "conditions": "CCK-4 100 nM; n = 35/three dishes; Fura-2, 34°C, BSS pH 7.4", "description": "as §1, §2"}, "[5]": {"system": "Zucker fa/fa rats lacking functional leptin receptors", "conditions": "cited from earlier work", "excerpt": "(§6) Also, the effect of CCK on satiety control is attenuated in Zucker fa/fa rats lacking functional leptin receptors. In addition, other evidence implicated that leptin-mediated satiety-controlling systems may strongly interact with CCK systems[18],[50]–[54]. For example, c-Fos expression in oxytocin neurons in the hypothalamic paraventricular nucleus is elevated by leptin administration, and these neurons have axons tha ..."}, "rats": {"system": "rats", "conditions": "sub-threshold CCK and leptin, individually no effect on feeding; cited from earlier work", "excerpt": "as §6"}, "mice": {"system": "mice", "conditions": "sub-threshold CCK and leptin, individually no effect on feeding; cited from earlier work", "excerpt": "as §6"}, "[6]": {"system": "meal frequency / meal size", "conditions": "CCK; cited from earlier work", "excerpt": "Although CCK and leptin have been commonly described as satiety controlling peptides, their differential roles have also been highlighted. […] Among the wide variety of intracellular signalling machineries linked to ObRb, it is still uncertain which pathway(s) is/are linked to what type of satiety controls. pSTAT3-ir is used as a genera ..."}}, "note": "“Also recorded” adds a separate entry of the source.", "data": [{"compound": "CC(C)Oc1cccc(-n2c(CCc3c[nH]c4ccc(Br)cc34)nc3ccccc3c2=O)c1", "note": "[LY225910]", "values": [{"measurement": "reduction of CCK-8s-induced Ca2+ transients", "setting": "[1]", "result": "almost completely reduced"}]}, {"compound": "CCCCCN(CCCCC)C(=O)C(CCC(=O)O)NC(=O)c1ccc(Cl)c(Cl)c1", "note": "(stereo not shown) [LGM, lorglumide]", "values": [{"measurement": "food access frequency at the onset of re-feeding relative to saline control", "setting": "CCK-1 receptor", "result": 1.8, "unit": "times"}, {"measurement": "number of cells displaying c-Fos-ir, ARC", "setting": "[2]", "result": "failed to modulate the number of cells displaying c-Fos-ir"}, {"measurement": "number of cells displaying pSTAT3-ir, ARC", "setting": "[2]; 14 images in four rats, p < 0.01", "result": "increased number of cells displaying pSTAT3-ir"}, {"measurement": "number of cells displaying c-Fos-ir, VMN", "setting": "[3]; 18 images in four rats, p < 0.05", "result": "significantly decreased the number of cells displaying c-Fos-ir"}, {"measurement": "number of cells displaying pSTAT3-ir, VMN", "setting": "[3]; P < 0.05", "result": "increased number of cells displaying pSTAT3-ir"}, {"measurement": "effect of CCK-1 antagonist on leptin-induced Ca2+ responses", "setting": "VMN cells", "result": "reduced leptin-induced Ca^2+ responses"}]}, {"compound": "O=c1cc(N2CCOCC2)oc2c(-c3ccccc3)cccc12", "note": "[LY294002]", "values": [{"measurement": "cytosolic pSTAT3 signal with kinase inhibitor", "setting": "pSTAT3 in C6-ObRb cells", "result": "cytosolic pSTAT3 signal was not elevated"}, {"measurement": "nuclear pSTAT3-ir with PI3K inhibitor", "setting": "pSTAT3 in C6-ObRb cells; LY294002 50 µM from 15 min prior to leptin stimulation until fixation, 30 images/three dishes, p < 0.01", "result": "significantly reduced nuclear pSTAT3-ir below the level of un-stimulated controls; also recorded: blocked leptin-induced nuclear pSTAT3 elevation"}, {"measurement": "effect of PI3K inhibitor on (leptin-amplified) CCK-8s-induced Ca2+ mobilization", "setting": "wild-type C6 cells; LY294002 50 µM, 10 min, leptin pre-treatment, CCK-8s, n = 45/three dishes", "result": "significantly inhibited CCK-8s-induced Ca^2+ mobilization; also recorded: significantly reduced leptin action for CCK-8s-induced Ca^2+ mobilization"}]}, {"compound": "N#C/C(=C/c1ccc(O)c(O)c1)C(=O)NCc1ccccc1", "note": "[AG490]", "values": [{"measurement": "nuclear pSTAT3-ir with JAK inhibitor", "setting": "pSTAT3 in C6-ObRb cells; AG490 1 µM from 15 min prior to leptin stimulation until fixation, 30 images/three dishes, p < 0.01", "result": "significantly reduced nuclear pSTAT3-ir below the level of un-stimulated controls; also recorded: blocked leptin-induced nuclear pSTAT3 elevation"}, {"measurement": "cytosolic pSTAT3 signal with kinase inhibitor", "setting": "pSTAT3 in C6-ObRb cells", "result": "cytosolic pSTAT3 signal was not elevated"}, {"measurement": "effect of JAK inhibitor on leptin amplification of CCK-8s-induced Ca2+ mobilization", "setting": "wild-type C6 cells; AG490 1 μM, 10 min, leptin pre-treatment, CCK-8s, n = 48/three dishes", "result": "leptin failed to amplify the CCK-8s-induced Ca^2+ mobilization; also recorded: significantly reduced leptin action for CCK-8s-induced Ca^2+ mobilization"}]}, {"compound": "CCK-4", "values": [{"measurement": "C6 cells displaying Ca2+ transients", "setting": "[4]", "result": "approximately 20%"}]}, {"compound": "cholecystokinin [CCK]", "values": [{"measurement": "effect of CCK on satiety control in Zucker fa/fa rats", "setting": "[5]", "result": "attenuated"}, {"measurement": "food intake, co-administration with leptin", "setting": "rats", "result": "dramatically reduced food intake"}, {"measurement": "food intake, co-administration with leptin", "setting": "mice", "result": "dramatically reduced food intake"}, {"measurement": "meal frequency", "setting": "[6]", "result": "reduce meal frequency"}]}, {"compound": "Nc1ncnc2c1ncn2[C@@H]1O[C@H](COP(=O)(O)OP(=O)(O)OP(=O)(O)O)[C@@H](O)[C@H]1O", "note": "[ATP]", "values": [{"measurement": "Ca2+ mobilization, positive control", "setting": "wild-type C6 cells; ATP 100 µM at the end of experiment", "result": "High Ca^2+ mobilization"}]}]}
